Read-outs that look alike come from different tables or passages of the source. No end group written: not given here.
Experiments:
[1] = tested on: isolated guinea pig gallbladder; experiment: Functional activity in isolated guinea pig gallbladder preparation; format: cell-based; settings: for activation at 30 µM / activation at 1 µM: Cavia porcellus; for activation at 1 µM: read-out: %Contraction (1 × 10^-6 M)
rat gastric emptying = experiment: Rat gastric emptying assay; format: in vivo; settings: vehicle 66
Description: 7. RAT GASTRIC EMPTYING PROTOCOL
Methyl Cellulose (MC) Test Meal
1. Disperse MC in water at 80° C. at a final concentration of 1.5% under continuous stirring. Cool to room temperature.
2. Add Phenol Red (50 mg/100) to solution.
3. Keep solution stirring during entire experiment.
1. Food deprive animals for 18 hours.
2. Inject test drug/prop. glycol or prop. glycol alone intraperitoneally.
3. After 5 minutes, gavage 1.5 mL of Pheno Red/MC solution
1. After 20 minutes, decapitate animal
2. Clamp stomach at the pylorus and cardia ends, and rinse in 0.9% NaCl.
3. Place stomach in 100 mL of 0.1N NaOH, cut into small pieces, and homogenize for 30 seconds.
4. Let settle at room temperature for 60 minutes.
5. In centrifuge tube, add 5 mL of supernatant and 0.5 mL of trichloroacetic acid (29% w/v), and centrifuge at 2,800 rpm for 20 minutes.
6. Decant supernatant, and add 4 mL of 0.5N NaOH and read absorbance at a wavelength of 560 nm.
Calculations [formula] The standard stomach is determined from the phenol red recovered in stomachs of rats decapitated immediately after intragastric infusion of MC/phenol red.

[2] = delivered at 30 μM, read-out: Isolated guinea pig gallbladder: % contraction
[3] = intraperitoneally at 0.1 μmoles/kg
[4] = 1 × 10^-6 M test compound, expressed as % CCK-induced maximal response
[5] = 3 × 10^-5 M test compound, expressed as % CCK-induced maximal response, read-out: % Contraction (3 × 10^-5 M)

COc1ccc(N(C(=O)CN2C(=O)C(Cc3n[nH]c4ccccc34)C(=O)N(c3ccccc3)c3ccccc32)C(C)C)cc1 (stereo not drawn) [Example 31, 2-[3-(1H-Indazol-3-ylmethyl)-2,4-dioxo-5-phenyl-2,3,4,5-tetrahydro-benzo[b][1,4]diazepin-1-yl]-N-isopropyl-N-(4-methoxy-phenyl) acetamide]
activation at 30 µM [1, 2]: 87% | rat gastric emptying: % emptying (rat gastric emptying; [3]): 6%

COc1ccc(N(C(=O)CN2C(=O)C(Cc3n[nH]c4ccccc34)C(=O)N(c3ccccn3)c3ccccc32)C(C)C)cc1 (stereo not drawn) [Example 49, 2-[3-(1H-Indazol-3-ylmethyl)-2,4-dioxo-5-pyrid-2-yl-2,3,4,5-tetrahydro-benzo[b][1,4]diazepin-1-yl]-N-isopropyl-N-(4-methoxy-phenyl) acetamide]
activation at 1 µM [1, 4]: 75% | activation at 30 µM [1, 5]: 91% | activation at 30 µM [1, 2]: 100% | rat gastric emptying: % emptying (rat gastric emptying; [3]): 2.5%

COc1ccc(N(C(=O)CN2C(=O)C(Cc3n[nH]c4ccccc34)C(=O)N(c3cccnc3)c3cc(F)ccc32)C(C)C)cc1 (stereo not drawn) [Example 66, 2-[7-Fluoro-3-(1H-indazol-3-ylmethyl)-2,4-dioxo-5-pyridin-3-yl-2,3,4,5-tetrahydro-benzo[b][1,4]diazepin-1-yl]-N-isopropyl-N-(4-methoxy-phenyl)-acetamide]
activation at 1 µM [1, 4]: 97% | activation at 30 µM [1, 5]: 116%

COc1ccc(N(C(=O)CN2C(=O)C(Cc3n[nH]c4ccccc34)C(=O)N(c3ccccc3)c3cc(F)c(F)cc32)C(C)C)cc1 (stereo not drawn) [Example 67, 2-[7,8-Difluoro-3-(1H-indazol-3-ylmethyl)-2,4-dioxo-5-phenyl-2,3,4,5-tetrahydro-benzo[b][1,4]diazepin-1-yl]-N-isopropyl-N-(4-methoxy-phenyl)-acetamide]
activation at 1 µM [1, 4]: 78% | activation at 30 µM [1, 5]: 102%

CC(C)N(C(=O)CN1C(=O)C(Cc2n[nH]c3ccccc23)C(=O)N(c2ccccc2)c2ccccc21)c1ccccc1 (stereo not drawn) [Example 68, 2-[3-(1H-indazol-3-ylmethyl)-2,4-dioxo-5-phenyl-2,3,4,5-tetrahydro-benzo[b][1,4]diazepin-1-yl]-N-isopropyl-N-phenyl-acetamide]
activation at 1 µM [1, 4]: 93% | activation at 30 µM [1, 5]: 99%

CC(C)N(C(=O)CN1C(=O)C(Cc2n[nH]c3cc(F)ccc23)C(=O)N(c2ccccc2)c2ccccc21)c1ccccc1 (stereo not drawn) [Example 69, 2-[3-(6-Fluoro-1H-indazol-3-ylmethyl)-2,4-dioxo-5-phenyl-2,3,4,5-tetrahydro-benzo[b][1,4]diazepin-1-yl]-N-isopropyl-N-phenyl-acetamide]
activation at 1 µM [1, 4]: 98% | activation at 30 µM [1, 5]: 92%

CC(C)N(C(=O)CN1C(=O)C(Cc2n[nH]c3cc(F)ccc23)C(=O)N(c2ccccc2)c2ccccc21)c1ccc(OC(F)(F)F)cc1 (stereo not drawn) [Example 70, 2-[3-(6-Fluoro-1H-indazol-3-ylmethyl)-2,4-dioxo-5-phenyl-2,3,4,5-tetrahydro-benzo[b][1,4]diazepin-1-yl]-N-isopropyl-N-(4-trifluoromethoxy-phenyl)-acetamide]
activation at 1 µM [1, 4]: 66% | activation at 30 µM [1, 5]: 73%

COc1ccc(N(C(=O)CN2C(=O)C(Cc3n[nH]c4ccccc34)C(=O)N(c3cccnc3)c3ccccc32)C(C)C)cc1 (stereo not drawn) [Example 71, 2-[3-(1H-indazol-3-ylmethyl)-2,4-dioxo-5-pyridin-3-yl-2,3,4,5-tetrahydrobenzo[b][1,4]diazepin-1-yl]-N-isopropyl-N-(4-methoxy-phenyl) acetamide]
activation at 1 µM [1, 4]: 106% | activation at 30 µM [1, 5]: 92%

COc1ccc(N(C(=O)CN2C(=O)C(C)(Cc3n[nH]c4ccccc34)C(=O)N(c3cccnc3)c3ccccc32)C(C)C)cc1 (stereo not drawn) [Example 74, 2-[3-(1H-Indazol-3-ylmethyl)-3-methyl-2,4-dioxo-5-pyridin-3-yl-2,3,4,5-tetrahydro-benzo[b][1,4]diazepin-1-yl]-N-isopropyl-N-(4-methoxy-phenyl)-acetamide]
activation at 1 µM [1, 4]: 86% | activation at 30 µM [1, 5]: 88%

COc1ccc(N(C(=O)CN2C(=O)C(C)(Cc3n[nH]c4ccccc34)C(=O)N(c3cccnc3)c3ccccc32)C(C)C)cc1 (stereo not drawn) [Example 76, 2-[3-(1H-indazol-3-ylmethyl)-3-methyl-2,4-dioxo-5-pyridin-3-yl-2,3,4,5-tetrahydro-benzo[b][1,4]diazepin-1-yl]-N-isopropyl-N-(4-methoxy-phenyl)-acetamide]
%Contraction (1 × 10^-6 M) [1, 4]: 93% | % Contraction (3 × 10^-5 M) ([1]; 3 × 10^-5 M test compound, expressed as % CCK-induced maximal response): 95%

CC(C)N(C(=O)CN1C(=O)C(Cc2n[nH]c3ccccc23)C(=O)N(c2ccccc2)c2ccccc21)c1ccc2c(c1)OCO2 (stereo not drawn) [Example 77, 2-[3-(1H-Indazol-3-ylmethyl)-2,4-dioxo-5-phenyl-2,3,4,5-tetrahydrobenzo[b][1,4]diazepin-1-yl]-N-isopropyl-N-(3,4-methylenedioxy-phenyl) acetamide]
activation at 1 µM [1, 4]: 78% | activation at 30 µM [1, 5]: 120%

COc1ccccc1N(C(=O)CN1C(=O)C(Cc2n[nH]c3ccccc23)C(=O)N(c2ccccc2)c2ccccc21)C(C)C (stereo not drawn) [Example 78, 2-[3-(1H-Indazol-3-ylmethyl)-2,4-dioxo-5-phenyl-2,3,4,5-tetrahydrobenzo[b][1,4]diazepin-1-yl]-N-isopropyl-N-(2-methoxy-phenyl) acetamide]
activation at 1 µM [1, 4]: 43%

COc1cccc(N(C(=O)CN2C(=O)C(Cc3n[nH]c4ccccc34)C(=O)N(c3ccccc3)c3ccccc32)C(C)C)c1 (stereo not drawn) [Example 79, 2-[3-(1H-Indazol-3-ylmethyl)-2,4-dioxo-5-phenyl-2,3,4,5-tetrahydrobenzo[b][1,4]diazepin-1-yl]-N-isopropyl-N-(3-methoxy-phenyl) acetamide]
activation at 1 µM [1, 4]: 92% | activation at 30 µM [1, 5]: 93%

COc1ccc(N(C(=O)CN2C(=O)C(Cc3n[nH]c4ccccc34)C(=O)N(c3ccncc3)c3ccccc32)C(C)C)cc1 (stereo not drawn) [Example 80, 2-[3-(1H-Indazol-3-ylmethyl)-2,4-dioxo-5-pyridin-4-yl-2,3,4,5-tetrahydro-benzo[b][1,4]diazepin-1-yl]-N-isopropyl-N-(4-methoxy-phenyl)-acetamide]
activation at 1 µM [1, 4]: 81% | activation at 30 µM [1, 5]: 73%

COc1ccc(N(C(=O)CN2C(=O)C(Cc3n[nH]c4ccccc34)C(=O)N(c3cccc(F)c3)c3ccccc32)C(C)C)cc1 (stereo not drawn) [Example 81, 2-[5-(3-Fluoro-phenyl)-3-(1H-indazol-3-ylmethyl)-2,4-dioxo-2,3,4,5-tetrahydro-benzo[b][1,4]diazepin-1-yl]-N-isopropyl-N-(4-methoxy-phenyl)-acetamide]
activation at 1 µM [1, 4]: 97% | activation at 30 µM [1, 5]: 96%

COc1ccc(N(C(=O)CN2C(=O)C(COCc3ccccc3)C(=O)N(c3ccccc3)c3ccccc32)C(C)C)cc1 (stereo not drawn) [Example 82, 2-[3-(Benzyloxymethyl)-2,4-dioxo-5-phenyl-2,3,4,5-tetrahydro-benzo[b][1,4]diazepin-1-yl]-N-isopropyl-N-(4-methoxy-phenyl)-acetamide]
activation at 1 µM [1, 4]: 69% | activation at 30 µM [1, 5]: 89%

CC(C)N(C(=O)CN1C(=O)C(Cc2n[nH]c3ccccc23)C(=O)N(c2cccnc2)c2ccccc21)c1ccccc1 (stereo not drawn) [Example 83, 2-[3-(1H-Indazol-3-ylmethyl)-2,4-dioxo-5-pyridin-3-yl-2,3,4,5-tetrahydrobenzo[b][1,4]diazepin-1-yl]-N-isopropyl-N-phenyl acetamide]
activation at 1 µM [1, 4]: 85% | activation at 30 µM [1, 5]: 97%

COc1ccc(N(C(=O)CN2C(=O)C(C)(CC(=O)Nc3ccccc3)C(=O)N(c3cccnc3)c3ccccc32)C(C)C)cc1 (stereo not drawn) [Example 84, N-Isopropyl-N-[4-methoxyphenyl]-2-[3-methyl-2,4-dioxo-3-phenylcarbamoylmethyl-5-pyridin-3-yl-2,3,4,5-tetrahydrobenzo[b][1,4]diazepin-1-yl) acetamide]
activation at 1 µM [1, 4]: 96% | activation at 30 µM [1, 5]: 96%

CCK8: the Cterminal octapeptide of CCK (DYMGWMDF; ends and bridges not checked; UniProt P06307 96-103, looked up) [reference compound]
Isolated guinea pig gallbladder: % contraction ([1]; delivered at 1 μM): 100% | rat gastric emptying: % emptying (rat gastric emptying; CCK-8 intraperitoneally at 30 nmoles/kg): 0%

Reference: US5859007A, “CCK or gastrin modulating benzo [b][1,4] diazepines derivatives” (Glaxo Wellcome Inc., priority 1994, dated 1999)
